Reference: ChEMBL document CHEMBL1129819, “Polysubstituted 2H-pyran-2-ones: A new class of hepatoprotective agents” (1997)

Assays:
Assay type in all cases: functional
[1] = species on record: Rattus norvegicus; assay: Percent protection against thioacetamide-induced toxicity in rats using acid phosphatase(ACP); set-up: concentration or dose not given beside the values
[2] = test system: Rattus norvegicus; assay: Percent protection against thioacetamide-induced toxicity in rats using glutamate oxaloacetate transaminase (GOT) when peroral administration of compound 6 mg/kg for 7 days; conditions: route oral
[3] = test system: Rattus norvegicus; assay: Percent protection against thioacetamide-induced toxicity in rats using glutamate pyruvate transaminase (GPT) when peroral administration of compound 6 mg/kg for 7 days; conditions: route oral
[4] = test system: Rattus norvegicus; assay: Percent protection against thioacetamide-induced toxicity in rats using glutamate dehydrogenase (GIDH) when peroral administration of compound 6 mg/kg for 7 days; conditions: route oral
[5] = test system: Rattus norvegicus; assay: Percent protection against thioacetamide-induced toxicity in rats using alkaline phosphatase (ALP) when peroral administration of compound 6 mg/kg for 7 days; conditions: route oral
[6] = test system: Rattus norvegicus; assay: Percent protection in alcohol-induced model using glutamate oxaloacetate transaminase(GOT) when peroral administration of compound 12 mg/kg for 7 days; conditions: route oral
[7] = test system: Rattus norvegicus; assay: Percent protection in carbon tetrachloride-induced model using glutamate dehydrogenase(GIDH) when peroral administration of compound 6 mg/kg for 7 days; conditions: route oral
[8] = test system: Rattus norvegicus; assay: Percent protection in paracetamol-induced model using acid phosphatase(ACP) when peroral administration of compound 6 mg/kg for 7 days; conditions: route oral
[9] = test system: Rattus norvegicus; assay: Percent protection in galactosamine-induced model using alkaline phosphatase(ALP) when peroral administration of compound 6 mg/kg for 7 days; conditions: route oral
[10] = test system: Rattus norvegicus; assay: Percent protection in alcohol-induced model using acid phosphatase(ACP) when peroral administration of compound 12 mg/kg for 7 days; conditions: route oral
[11] = test system: Rattus norvegicus; assay: Percent protection in carbon tetrachloride-induced model using glutamate pyruvate transaminase(GPT) when peroral administration of compound 6 mg/kg for 7 days; conditions: route oral
[12] = test system: Rattus norvegicus; assay: Percent protection in galactosamine-induced model using glutamate pyruvate transaminase(GPT) when peroral administration of compound 6 mg/kg for 7 days; conditions: route oral
[13] = test system: Rattus norvegicus; assay: Percent protection in paracetamol-induced model using glutamate dehydrogenase(GIDH) when peroral administration of compound 6 mg/kg for 7 days; conditions: route oral
[14] = test system: Rattus norvegicus; assay: Percent protection in alcohol-induced model using glutamate oxaloacetate transaminase(GOT) when peroral administration of compound 6 mg/kg for 7 days; conditions: route oral
[15] = test system: Rattus norvegicus; assay: Percent protection in alcohol-induced model using acid phosphatase(ACP) at peroral dose of 6 mg/kg for 7 days; conditions: route oral
[16] = test system: Rattus norvegicus; assay: Percent protection in carbon tetrachloride-induced model using glutamate oxaloacetate transaminase(GOT) when peroral administration of compound 6 mg/kg for 7 days; conditions: route oral
[17] = test system: Rattus norvegicus; assay: Percent protection in alcohol-induced model using glutamate dehydrogenase(GIDH) when peroral administration of compound 12 mg/kg for 7 days; conditions: route oral
[18] = test system: Rattus norvegicus; assay: Percent protection in paracetamol-induced model using alkaline phosphatase(ALP) at peroral dose of 6 mg/kg for 7 days; conditions: route oral
[19] = test system: Rattus norvegicus; assay: Percent protection in alcohol-induced model using glutamate dehydrogenase(GIDH) when peroral administration of compound 6 mg/kg for 7 days; conditions: route oral
[20] = test system: Rattus norvegicus; assay: Percent protection in galactosamine-induced model using glutamate oxaloacetate transaminase(GOT) when peroral administration of compound 6 mg/kg for 7 days; conditions: route oral
[21] = test system: Rattus norvegicus; assay: Percent protection in alcohol-induced model using glutamate pyruvate transaminase(GPT) when peroral administration of compound 6 mg/kg for 7 days; conditions: route oral
[22] = test system: Rattus norvegicus; assay: Percent protection in paracetamol-induced model using glutamate oxaloacetate transaminase(GOT) when peroral administration of compound 6 mg/kg for 7 days; conditions: route oral
[23] = test system: Rattus norvegicus; assay: Percent protection in alcohol-induced model using glutamate pyruvate transaminase(GPT) at peroral dose of 12 mg/kg for 7 days; conditions: route oral
[24] = test system: Rattus norvegicus; assay: Percent protection in carbon tetrachloride-induced model using alkaline phosphatase(ALP) when peroral administration of compound 6 mg/kg for 7 days; conditions: route oral
[25] = test system: Rattus norvegicus; assay: Percent protection in galactosamine-induced model using glutamate dehydrogenase(GIDH) when peroral administration of compound 6 mg/kg for 7 days; conditions: route oral
[26] = test system: Rattus norvegicus; assay: Percent protection in alcohol-induced model using alkaline phosphatase(ALP) when peroral administration of compound 6 mg/kg for 7 days; conditions: route oral
[27] = test system: Rattus norvegicus; assay: Percent protection in galactosamine-induced model using acid phosphatase(ACP)when peroral administration of compound 6 mg/kg for 7 days; conditions: route oral
[28] = test system: Rattus norvegicus; assay: Percent protection in paracetamol-induced model using glutamate pyruvate transaminase(GPT) when peroral administration of compound 6 mg/kg for 7 days; conditions: route oral
[29] = test system: Rattus norvegicus; assay: Percent protection in alcohol-induced model using alkaline phosphatase(ALP) when peroral administration of compound 12 mg/kg for 7 days; conditions: route oral
[30] = test system: Rattus norvegicus; assay: Percent protection in carbon tetrachloride-induced model using acid phosphatase(ACP) when peroral administration of compound 6 mg/kg for 7 days; conditions: route oral
[31] = test system: Rattus norvegicus; assay: Percent protection against thioacetamide-induced toxicity in rats using acid phosphatase(ACP) at peroral dose of 6 mg/kg for 7 days of compound; conditions: route oral

SMILES: CSc1cc(-c2ccco2)oc(=O)c1C#N
- Protection [1]: 0%
- Protection [2]: 71%
- Protection [3]: 72%
- Protection [4]: 15%
- Protection [5]: 19%

SMILES: CSc1cc(-c2ccc(Cl)cc2)oc(=O)c1C#N
- Protection [1]: 59%
- Protection [6]: 58%
- Protection [7]: 58%
- Protection [8]: 90%
- Protection [9]: 68%
- Protection [10]: 74%
- Protection [11]: 67%
- Protection [2]: 68%
- Protection [12]: 76%
- Protection [3]: 69%
- Protection [13]: 54%
- Protection [14]: 34%
- Protection [15]: 53%
- Protection [16]: 59%
- Protection [17]: 62%
- Protection [18]: 73%
- Protection [19]: 40%
- Protection [20]: 86%
- Protection [4]: 51%
- Protection [21]: 48%
- Protection [5]: 65%
- Protection [22]: 73%
- Protection [23]: 69%
- Protection [24]: 57%
- Protection [25]: 57%
- Protection [26]: 24%
- Protection [27]: 66%
- Protection [28]: 81%
- Protection [29]: 56%
- Protection [30]: 70%

SMILES: CSc1cc(-c2ccc(F)cc2)oc(=O)c1
- Protection [1]: 46%
- Protection [2]: 59%
- Protection [3]: 57%
- Protection [4]: 15%
- Protection [5]: 30%

SMILES: CSc1cc(-c2ccc(F)cc2)oc(=O)c1C#N
- Protection [1]: 46%
- Protection [2]: 20%
- Protection [3]: 31%
- Protection [4]: 0%
- Protection [5]: 15%

SMILES: CSc1cc(-c2ccc(Cl)cc2)oc(=S)c1Br
- Protection [1]: 0%
- Protection [2]: 25%
- Protection [3]: 0%
- Protection [4]: 20%
- Protection [5]: 36%

SMILES: CCOC(=O)c1c(SC)cc(-c2ccc(Cl)cc2)oc1=O
- Protection [2]: 23%
- Protection [3]: 31%
- Protection [4]: 17%
- Protection [5]: 11%
- Protection [31]: 0%

SMILES: CSc1cc(-c2ccc(Br)cc2)oc(=O)c1C#N
- Protection [1]: 38%
- Protection [2]: 20%
- Protection [3]: 10%
- Protection [4]: 40%
- Protection [5]: 56%

SMILES: CCOC(=O)c1c(SC)c(C#N)c(-c2ccc(Br)cc2)oc1=O
- Protection [1]: 2%
- Protection [2]: 0%
- Protection [3]: 0%
- Protection [4]: 2%
- Protection [5]: 0%

SMILES: CSc1cc(-c2ccc(Cl)cc2Cl)oc(=O)c1C#N
- Protection [1]: 61%
- Protection [2]: 37%
- Protection [3]: 45%
- Protection [4]: 65%
- Protection [5]: 33%

SMILES: CSc1cc(-c2ccc(F)cc2)oc(=O)c1Br
- Protection [2]: 0%
- Protection [3]: 0%
- Protection [4]: 0%
- Protection [5]: 43%
- Protection [31]: 49%

SMILES: CSc1cc(-c2ccc(Br)cc2)oc(=O)c1Br
- Protection [1]: 72%
- Protection [2]: 47%
- Protection [3]: 18%
- Protection [4]: 28%
- Protection [5]: 15%

SMILES: CSc1cc(-c2ccc(Cl)cc2)oc(=O)c1
- Protection [2]: 46%
- Protection [3]: 51%
- Protection [4]: 43%
- Protection [5]: 42%
- Protection [31]: 24%
